Experimental data published in patent publication US20110212116A1, “IMMUNOGENIC PEPTIDES AND USES THEREOF” (Cancer Research Technology Limited, priority 2008, published 2011).
“Also recorded” adds a separate entry of the source.

Legend:
healthy donor T cells = assay: IFNγ ELISA of healthy donor T cells stimulated with peptide loaded autologous DCs; format: cell-based, human; conditions: for IFNγ responses following stimulation with autologous DCs loaded with wild type peptide: in one of three normal donors tested; for IFNγ production from normal donor T cells: modified peptides P11-P16, six normal donors
Method: PBMCs were prepared from healthy donor buffy coats as described above. Monocytes were obtained from newly sourced buffy coats, or cells thawed at 10^6/ml in warm X-VIVO medium, 1% human AB serum and plated in 90 mm TC dishes. Plates were incubated at 37° C. for at least 4 hours and non adherent cells removed by gently washing with media or HBSS or CD14^+ cells were positively selected as described. The remaining T cell enriched cells were cryopreserved for use as effectors in later assays. The CD14^+ fraction/adherent cells were cultured in IL-4 (1000 IU/ml) and GM-CSF (800 U/ml) for 5 days to induce differentiation to a dendritic cell (DC) phenotype. On day 3 fresh IL-4 and GM-CSF were added. On day 5 TNFα (10 ng/ml), IL-6 (1000 U/ml) and IL-1β (10 ng/ml) all from R&D systems UK and PGE2 (1 μg/ml) (from Sigma, UK) were added to plates. On day 6 DCs were harvested from plates and washed with HBSS to remove residual cytokines before use in immunological experiments. Analysis of DC phenotype was carried out by flow cytometry.
IL-2 and IFNγ levels were determined with Duo set ELISA Development System (R&D Systems), according to the manufacturer's instructions. Supernatants were collected at various time points (days 3, 7, 10 and 14) in order to detect peak cytokine levels.
(§1) After 24 hours in maturation cytokines, DCs were incubated with peptide (50 μg/ml) for 4 hours. PBMCs or CD3^+ cells from healthy donors or patients with solid tumours were seeded into a 12-well plate, in X-VIVO 15 at a density of 2×10^6/ml. Peptide pulsed, monocyte derived DCs were washed and prepared at 2×10^5/ml. PBMC cultures received peptide pulsed DCs at a stimulator:effector ratio of […], or in the case of unstimulated controls, medium only. IL-7 was added to cultures at a final concentration of 10 U/ml on day 3. Cultures were restimulated by addition of peptide pulsed DCs on, day 7, and in some cases day 14, together with IL-7 and IL-2 (both at 10 U/ml). 200 μl of culture supernatants were collected at various intervals throughout the culture period and replaced with fresh medium. In the case of AML patient cultures, T2 cells were pulsed with peptide and used as stimulators in the same way as autologous DCs described above. Culture supernatants were analysed for IFNγ content by ELISA. After the 2-3 week culture period, stimulated effector cells were washed and analysed by pentamer staining, intracellular cytokine staining or ELISPOT assays.

HHD mice = assay: Mouse IFNγ-ELISpot after pDOM-epitope DNA vaccination
Method: HHD mice at 6 to 10 weeks of age were injected intramuscularly (i.m.) into both quadriceps with a total of 50 μg DNA in saline solution on day 0. Unless stated otherwise mice were boosted with the same DNA vaccine delivered with in vivo electroporation on day 28 as previously described^5.
Vaccine-specific IFNγ secretion by lymphocytes from individual mice was assessed ex vivo (BD ELISpot Set, BD PharMingen, San Diego, Calif.) on day 14 or 36, as described previously with some modifications^11. Briefly, viable lymphocytes were selected from splenocyte preparations by density centrifugation. […] Data are expressed as the frequency of spot-forming cells (SFCs) per million lymphocytes. For analysis of peptide-specific T-cell sensitivity, splenic lymphocytes from immunized mice were incubated with a range of PASD1 peptide concentrations and the frequency of specific cells assessed by ELISpot analysis as described. The number of SFC/million cells at the peptide concentration inducing the greatest response was assigned a value of 100%. For each peptide concentration tested the % maximal response was then calculated by the formula: (experimental SFCs per million cells/maximal SFCs per million cells)×100% for each individual animal.

healthy donor CD3+ cells = assay: Intracellular IFNγ staining of peptide stimulated CD3+ cultures; format: cell-based, human; conditions: after three stimulations, CD4 or CD8 co-staining
Method: For detection of IFNγ, Brefeldin A was added to T cells 12 hours prior to intracellular staining, to a final concentration of […]. Effector cells were washed with PBS and stained with CD8-PE or CD4-PE antibody for 30 minutes at room temperature. Stained cells were then washed twice with HBSS, and resuspended in the residual volume. 100 μl of fixation solution (Caltag Laboratories, UK) was added to each tube and samples incubated for 15 minutes at room temperature. Cells were then washed with cold HBSS, 1% FBS 0.1% sodium azide and resuspended in the residual volume. 100 μl of permeabilisation medium (Caltag Laboratories) and 5 μl of IFNγ-FITC was added to each tube, and incubated for 20 mins at room temperature. Finally, cells were washed and resuspended in 300-500 μl HBSS ready for FACS analysis. All antibodies and isotype controls were purchased from (Becton Dickinson, Oxford, UK) except HLA-A2 (from Serotec).
After 24 hours in maturation cytokines, DCs were incubated with peptide (50 μg/ml) for 4 hours. PBMCs or CD3^+ cells from healthy donors or patients with solid tumours were seeded into a 12-well plate, in X-VIVO 15 at a density of 2×10^6/ml. […] Culture supernatants were analysed for IFNγ content by ELISA. After the 2-3 week culture period, stimulated effector cells were washed and analysed by pentamer staining, intracellular cytokine staining or ELISPOT assays.

[1] = test system: healthy donor CD8+ T cells; assay: Pentamer staining, healthy donor CD3+ cells stimulated with peptide pulsed DCs; format: cell-based, human; conditions: two of four normal donors, after four stimulations
Method: (§2) Assessment of peptide specific T cells was carried out by staining 10^6 effector cells with 10 μl of PE labeled, HLA-A*0201 pentamers (custom made by Proimmune) for 10 minutes, at room temperature, in the dark. Cells were then washed and co-stained with CD8-FITC for 20 minutes at room temperature. The lymphocyte gate was selected according to FSSCH/SSCH and 50,000 events acquired. Staining with control pentamers was carried out for each sample.
as §1, with “200 μl of culture supernatants were collected at various intervals throughout the culture period and replaced with fresh medium. In the case of AML patient cultures, T2 cells were pulsed with peptide and used as stimulators in the same way as autologous DCs described above.” left out, “assays. […]” for “assays.”

AML patient CD8+ T cells = assay: Pentamer staining, AML patient CD3+ T cells stimulated with peptide loaded T2 cells; format: cell-based, human; conditions: for P14 pentamer positive cells of the CD8+ cells: after P14 peptide stimulation; for Pentamer positive cells, frequency of the CD8+ cells: after two rounds of ex vivo stimulation
Method: as §2, §1
(§3) The T2 line was first examined for immune stimulatory molecules by FACS analysis. […] T2 cells were cultured in serum free conditions to reduce the non-human antigens present in the FCS. T2 cells were incubated with peptide for 4 hours, washed and irradiated and seeded in 96 well plates. Purified T cells (Miltenyi) from patients were added and IFNγ secretion or the expansion of CD8^+ epitope specific T cells measured using pentamers.
Prior to each restimulation, cells were resuspended and aliquots taken for pentamer staining.

[2] = test system: solid tumour patient CD8+ T cells; assay: Pentamer staining, solid tumour patient CD3+ T cells stimulated with peptide loaded autologous DCs; format: cell-based, human; conditions: for Pentamer positive cells, frequency of CD8+ cells: absence of peptide stimulation; for Pentamer positive cells, frequency of the CD8+ population: after peptide stimulation (P15: three rounds)
Method: as §2, §1
There have been no reports of PASD1 expression in primary head and neck, prostate or colon cancer primary cells to date, but the head and neck cancer cell line Hn5^19, the lung cancer line H1299^19 and the colon cancer cell line SW480^24 are PASD1 positive. This raises the possibility that some solid cancer patients may be able to raise a response to the PASD1 peptides. Cells used in these experiments were isolated from leukophoresis samples taken several months after the cessation of treatment. Negatively purified CD3^+ T cells were stimulated with autologous monocyte derived DCs as described previously. Pentamer analysis was carried out after each stimulation.

patient T cells = assay: IFNγ secretion by patient T cells following in vitro peptide stimulation; format: cell-based, human; conditions: for Specific IFNγ secretion by ELISpot: colon cancer patient T cells stimulated with peptide
Method: FIG. 4. IFNγ secretion by patient T cells following in vitro stimulations. (A) IFNγ levels in peptide stimulated cultures from AML patients (same as shown in FIGS. 3 B and E) as measured by ELISpot assays. […] Graphs show IFNγ levels at day 10 (y-axis).
as §1, §3

patient CD8+ T cells = assay: pMHC tetramer array with unstimulated patient CD8+ T cells; format: cell-based, human
Method: FIG. 11: pMHC arrays. pMHC molecules were folded into tetramers using either streptavidin alone or AlexaFluor 532 (Molecular Probes) conjugated to streptavidin. Tetramers were spotted onto hydrogel slides using a contact deposition-type printer (Genetix), at a concentration of 0.5 mg/ml in 2% glycerol. Printed arrays were immobilised for 48 hours and stored at 4° C. until use. (FIG. 11 i) CD8+ T cells were negatively isolated from normal donor buffy coats obtained from National Blood Service UK or patient samples from the Department of Haematology, Southampton General Hospital following informed consent using EasySep isolation kits. […] Excess culture medium was removed before slides were analysed on the ProScanArray (PerkinElmer). […] Negatively isolated CD8+ T cells were labelled with CD8-FITC (FL1-H) and pMHC-SAPE (FL2-H) and analysed by flow cytometry using the FACScalibur™. […]
FIG. 12: Analysis of patient samples. […] Positives were only scored where at least 3 of 9 spots had T cells stuck to them and this occurred in both sets of spots in independent locations on the array. […]
In short, pMHC molecules were folded into tetramers using streptavidin alone or streptavidin conjugated to AlexaFluor 532 (Molecular Probes). […] Excess culture medium was removed before slides were analysed on the ProScanArray (PerkinElmer). […]

peptide loaded targets = format: cell-based
[3] = prostate cancer patient, up to four stimulations

Substance | IFNγ responses following stimulation with autologous DCs loaded with wild type peptide (healthy donor T cells) | Secretion of IFNγ in cultures of CD4+ depleted effector cells (healthy donor T cells) | IFNγ production from normal donor T cells (healthy donor T cells) | Pentamer positive T cells [1] | Pentamer positive cells, frequency of the CD8+ cells (AML patient CD8+ T cells; AML patients) | Pentamer positive cells, frequency of CD8+ cells ([2]; head and neck patient) | Pentamer positive cells, frequency of the CD8+ population ([2]; head and neck patient) | Pentamer positive cells [2, 3] | Specific IFNγ secretion by ELISpot (patient T cells) | Killing of peptide loaded targets (CTL assay) (peptide loaded targets) | other results
P4: wild type PASD1 nonamer, SEQ ID NO. 1 (LQNPRDVSV; listed as Homo sapiens) | generated some IFNγ responses |  |  |  |  |  |  |  |  |  | 
P8: wild type PASD1 peptide, SEQ ID NO. 9, PASD1 691-699 (RLWQELSDS; listed as Homo sapiens) | generated some IFNγ responses |  |  |  |  |  |  |  |  |  | IFNγ secretion (ELISpot) against the peptide of the immunisation (HHD mice; HHD mice, prime only, 14 days later): does not
P9: wild type PASD1 nonamer, SEQ ID NO. 11 (KLQERKKWQ; listed as Homo sapiens) | generated some IFNγ responses |  |  |  |  |  |  |  |  |  | 
P14: modified PASD1 peptide, SEQ ID NO 21, derivative of wild type peptide P8 (RLWQELSDI; Synthetic sequence amino acid sequence p14) |  | almost completely abolished | highest levels | small population | 0.02% | 0.02% | not expanded | No pentamer positive cells were detected | detectable |  | Phenotype of the IFNγ secreting cells (healthy donor CD3+ cells): IFNγ secreting cells were CD8+; Pentamer positive cells (AML patient CD8+ T cells; AML Patient 3 (remission) and Patient 4 (non remission), after three stimulations): no pentamer positive cells were detected; P14 pentamer positive cells of the CD8+ cells (AML patient CD8+ T cells; AML Patient I): 0.5%; P14 pentamer positive cells of the CD8+ cells (AML patient CD8+ T cells; AML Patient II): 0.09%; Pentamer positive cells, frequency of the CD8+ T cells (AML patient CD8+ T cells; AML patients, absence of peptide stimulation): not detectable above background levels; also recorded: undetectable; P14 pentamer positive cells, frequency of the CD8+ T cell population ([2]; colon cancer patient, fourth stimulation): 13.6%; P14 pentamer positive cells, frequency of CD8+ cells ([2]; colon cancer patient, stimulation with DCs alone, corrected for control pentamer): 0.09%; P14 pentamer positive cells, frequency of CD8+ T cells ([2]; colon cancer patient, three rounds of P14 peptide stimulation): 0.11%; IFNγ secretion by expanded P14-specific T cell populations (patient T cells; AML Patient I and II): IFNγ was secreted; HLA-A2 positive ALL and CML patients with P14-specific T cells (patient CD8+ T cells; 1 ALL and 1 CML HLA-A2 positive patient): neither; HLA-A2 positive AML patients with P14 specific T cells on the pMHC array (patient CD8+ T cells; at presentation, no prior ex vivo stimulation): two of four; IFNγ secretion (ELISpot) against the peptide of the immunisation (HHD mice; mouse, in vivo): leads to an IFNγ response
P15: PASD1 peptide analogue with a single amino acid change, PASD1 587-595 (LINPRDVSV) |  | almost completely abolished | highest levels | small population | 0.02% | same low frequency | 0.06% | No pentamer positive cells were detected | not | did not occur | Pentamer positive cells ([2]; head and neck patient, fourth stimulation): did not expand this further
P16: PASD1 peptide analogue with a single amino acid change, PASD1 587-595 (LVNPRDVSV) |  | almost completely abolished | highest levels |  |  |  |  |  |  | did not occur | 
